According to US8735590B2, “Bicyclo-heptan-2-amines” (priority 2011, dated 2014):

Experiments:
MCF-7 cells = assay: MTT cell viability assay in MCF-7 breast carcinoma cells; format: cell-based, human; conditions: 24 hours; for effect on cell viability in MCF-7 cells: MTT assay, 10 μM to 500 μM, FIG. 6; for percent survival of untreated control cells: MTT
Description: (§1) We also evaluated the effect of compounds 5a, 5b and 5c on the human glioma cell line U-138 and the human breast carcinoma cell line MCF-7. Doxorubicin, a clinically used anticancer compound, served as a positive control.
(§2) Cell viability was assayed using the MTT assay essentially as described in Example 8. Adherent cells were trypsinized and placed into 96-well flat bottom tissue culture plates in 100 μl of supplemented Dulbecco's Modified Eagles Media (DMEM) at 10,000 cells/well for 24 hours. Cells were treated with the compounds for 24 hours at concentrations ranging from 10 μM to 500 μM. Cells were incubated with MTT reagent for 4 hours followed with MTT detergent for 24 hours. Plates were read on a computerized microplate ELISA reader at an optical density of 570 nm. The percent cytotoxicity was determined by the ratio of treated optical densities to control optical densities (OD) from one and multiplying by 100. The concentration giving 50% cytotoxicity, IC50, was determined from the dose response curves for each cell line using the GraphPad Prism software package. Each experiment was performed three separate times and the data presented are the pooled results of the three experiments.

MDCK cells = assay: MTT cell viability assay in MDCK cells; format: cell-based, canine; conditions: 10-500 μM, FIG. 3A
Description: (§3) We evaluated the effect of compounds 5a, 5b and 5c on cell viability in the neuronal cell line N2a and in the Madin-Darby canine kidney (MDCK) cell line, a blood-brain barrier model. Memantine, an NMDA glutamate receptor antagonist, was used as a negative control.
(§4) Mouse Neuro-2a (CCL-131, ATCC) and MDCK (CCL-34, ATCC) were routinely propagated using Eagle's Minimum Essential Medium (EMEM, ATCC), supplemented with 10% fetal bovine serum (FBS, ATCC) and 1% penicillin/streptomycin (Gibco) in 100 cm^2 Petri-dishes (Corning) at 37° C. in 5% CO2. Compounds 5a, 5b and 5c were obtained as salts. Stock solutions (1 mM) were prepared in double distilled water. The treatment concentrations for the compounds and the memantine control were 10, 50, 100, 200, 300, and 500 μM. Cells were allowed to attach overnight prior to treatment. H2O2 served as positive control. Working concentrations were prepared immediately prior to treatment by dilution into medium.
(§5) Cell viability was assayed using the MTT (3-(4,5-dimethylthiazole-2-yl)-2,5-diphenyltetrazoliumbromide) assay (ATCC) according to manufacturer's instructions. Cells were plated at a concentration of 13,000 to 20,000 cells/well on a 96-well round-bottom plate. MTT assay. The following determinants were optimized for each cell line: plating cell concentration; incubation time with MTT reagent, and incubation time with detergent reagent. Absorbance was recorded at 570 nm by a microtiter plate reader (VICTOR^3, PerkinElmer). This experiment was repeated on three separate occasions and results were presented as the mean absorbance±SD.

Sigma-2 receptor = biological target: T1, Sigma-2 receptor (Rattus norvegicus, UniProt Q5U3Y7); assay: NIMH-PDSP receptor binding, Sigma-2 (radioligand DTG, PC12)
T1 construct: endogenous in cells
T1 sequence (Q5U3Y7 1-176): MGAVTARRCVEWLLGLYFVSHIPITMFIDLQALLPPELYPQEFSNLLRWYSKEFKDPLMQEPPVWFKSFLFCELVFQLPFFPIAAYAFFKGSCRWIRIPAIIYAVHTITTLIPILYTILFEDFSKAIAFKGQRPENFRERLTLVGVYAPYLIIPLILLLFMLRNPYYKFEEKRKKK
Description: (§6) Compounds 5a, 5b and 5c were accepted into the National Institute of Mental Health Psychoactive Drug Screening Program, NIMH-PDSP, National Institutes of Health (NIH). Each compound was evaluated for affinity at human or rat receptors. Sites to be evaluated were chosen based on known or suspected sites of interaction with related compounds. The receptors evaluated, radio-labeled ligand, species and receptor source are depicted in Table 1. Experimental details and procedure can be found through Assay Protocol Book, National Institute of Mental Health Psychoactive Drug Screening Program, University of North Carolina at Chapel Hill.

N2a cells = assay: MTT cell viability assay in N2a cells; format: cell-based, Mouse; conditions: 10-500 μM, FIG. 4A
Description: as §3, §4, §5

Sigma-1 receptor = biological target: T2, Sigma-1 receptor (Rattus norvegicus, UniProt Q9R0C9); assay: NIMH-PDSP receptor binding, Sigma-1 (radioligand Pentazocine(+), brain)
T2 construct: from tissue; NIMH-PDSP)
Description: as §6

MES-induced seizures = assay: Maximal Electroshock Test (MES), tonic-clonic seizure model; format: in vivo; conditions: mice
Description: Compounds 5a, 5b and 5c were evaluated in for the ability to modulate seizures using the Maximal Electroshock Test (MES), a model for generalized tonic-clonic seizures that can provide an indication of a compound's ability to prevent seizure spread when all neuronal circuits in the brain are maximally active. For all tests based on MES convulsions, 60 Hz of alternating current (50 mA in mice) was delivered for […] by corneal electrodes which had been primed with an electrolyte solution containing an anesthetic agent (0.5% tetracaine HCL). Mice were tested at various intervals following doses of 30, 100 and 300 mg/kg of test compound given by i.p. injection of a volume of 0.01 mUg. An animal was considered “protected” from MES-induced seizures upon abolition of the hindlimb tonic extensor component of the seizure. Compound 5c was active at 100 and 300 mg/kg.

U-138 glioma cells = assay: MTT cell viability assay in U-138 glioma cells; format: cell-based, human; conditions: 24 hours, 10 μM to 500 μM, FIG. 5
Description: as §1, §2

T2 sequence (Q9R0C9 whole entry): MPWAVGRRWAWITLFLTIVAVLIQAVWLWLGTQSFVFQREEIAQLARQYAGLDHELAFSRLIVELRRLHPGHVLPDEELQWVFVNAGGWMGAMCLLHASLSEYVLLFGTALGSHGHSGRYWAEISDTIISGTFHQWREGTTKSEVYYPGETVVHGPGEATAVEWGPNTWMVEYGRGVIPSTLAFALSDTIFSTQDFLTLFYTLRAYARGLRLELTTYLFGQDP

| Compound | effect on cell viability in MCF-7 cells (MCF-7 cells) | effect on cell viability in MDCK cells (MDCK cells) | Ki (Sigma-2 receptor) [nM] | effect on cell viability in N2a cells (N2a cells) | Ki (Sigma-1 receptor) [nM] | activity in MES test (protection from MES-induced seizures) (MES-induced seizures; 100 mg/kg i.p.) | activity in MES test (protection from MES-induced seizures) (MES-induced seizures; 300 mg/kg i.p.) | percent survival of untreated control cells (MCF-7 cells; 200 μM) [%] | percent survival of untreated control cells (MCF-7 cells; 300 μM) [%] | percent survival of untreated control cells (MCF-7 cells; 500 μM) [%] | effect on cell viability in U-138 glioma cells (U-138 glioma cells) |
| --- | --- | --- | --- | --- | --- | --- | --- | --- | --- | --- | --- |
| c1ccc(C2(NCCCN3CCCCC3)CC3CCC2C3)cc1 (racemic) [Compound 5a, (±)-2-Phenyl-N-(3-(piperidin-1-yl)propyl)bicyclo[2.2.1]heptan-2-amine] | dose-dependent reduction in cell viability | minimal effects on cell viability | 9.6 | dose-dependent reduction in cell viability | > 10000 |  |  |  |  |  |  |
| Fc1ccc(C2(NCCCOC3CCCCO3)CC3CCC2C3)cc1 (racemic) [Compound 5c, 2-(4-Fluorophenyl)-N-(3-(tetrahydro-2H-pyran-2-yloxy)propyl)bicyclo[2.2.1]heptan-2-amine] | dose-dependent reduction in cell viability | minimal effects on cell viability | 5.5 | dose-dependent reduction in cell viability | > 10000 | active | active |  |  |  |  |
| Fc1ccc(C2(NCCCN3CCCCC3)CC3CCC2C3)cc1 (racemic) [Compound 5b, (±)-2-(4-Fluorophenyl)-N-(3-(piperidin-1-yl)propyl)bicyclo[2.2.1]heptan-2-amine] | dose-dependent reduction in cell viability | minimal effects on cell viability | 16 | dose-dependent reduction in cell viability | > 10000 |  |  | 70 | 63 | 16 | dose-dependent effect on cell viability |
